{"source": "patent US6838467B2", "about": "“Dosing regimen” (Janssen Pharmaceutica N. V., priority 2000, dated 2005)", "format_in_all_cases": "in vivo", "key": {"[1]": {"tested_on": "T24 H-ras transformed NIH3T3 cell tumors", "assay": "Tumor studies in nude mice: T24 H-ras tumors, oral compound 1", "conditions": "for duration of response (tumor suppressive effect): five-day dosing schedule"}, "[2]": {"tested_on": "CAPAN-2 human pancreatic tumors", "assay": "Tumor studies in nude mice: CAPAN-2 tumors, oral compound 1", "conditions": "for tumor growth, continuous schedule: continuous for 18 days, previous study", "text": "(§1) Cell Culture: CAPAN-2 human pancreatic carcinoma cells were purchased from the American Type Culture Collection (Rockville, Md.). Cells were maintained in McCoys 5A Medium supplemented with 10% fetal calf serum and penicillin-streptomycin. NIH 3T3 cells transfected with the activated T24 H-ras oncogene (T24 cells ) were obtained from, Janssen Research Foundation (For methods see Parada, L. F., Tabin, C. J., Shih, C., and Weinberg, R Human EJ bladder carcinoma oncogene is\n(§2) Animals: Female nu/nu immunodeficient nude mice (42 days old) were purchased from Charles River Laboratories (Wilmington, Mass.). Mice were housed five per cage in microisolator cages placed in laminar flow shelving to maintain sterility. All bedding, food, water and cages were autoclaved. Animals were handled within the sterile confines of a laminar flow cabinet. The mice were otherwise maintained under standard vivarium conditions. Tumor studies were conducted under a protocol approved by the Institutional Animal Care and Use Committee.\n(§3) Tumor Studies In Nude Mice: Cells growing as monolayers in T150 tissue culture flasks were detached by trypsinization with 10 ml of 0.05% trypsin plus 0.53 mM EDTA per flask. Tumor cell suspensions were pooled and trypsin was inactivated by the addition of serum containing medium (10 ml per 40 ml of trypsin cell suspension). Cells were collected by centrifugation and resuspended in Hank's Balanced Salt Solution (HBSS) warmed to 37° C. A 1.0 ml portion of cell suspension was added to 20 ml of diluent and counted on a Coulter particle counter. The cell suspensions were recentrifuged and resuspended at a concentration of 1×10^6 cell per 0.10 ml of HBSS. Mice were inoculated with a single subcutaneous injection of 0.10 ml of tumor cell suspension in the inguinal region. Mice were housed five per cage with 15 mice assigned to each treatment group. Body weight and tumor size as determined by caliper measurements were measured weekly. The caliper measurements of length and width were multiplied to obtain tumor areas. At the end of study, mice were sacrificed by CO2 asphyxiation.\n[…] […] Control groups received the same dosage volume of the 20% beta-cyclodextrin vehicle.\n[…] […] […] […] The final drug solutions were sterile filtered immediately and transferred to sterile tubes. Solutions were stored refrigerated and protected form light during the course of the study and sterility was maintained by opening solutions under sterile laminar flow conditions."}, "[3]": {"tested_on": "T24 H-ras transformed NIH3T3 cell tumors", "assay": "Tumor studies in nude mice: T24 H-ras tumors, oral compound 1", "text": "as §1\nhomologue of Harvey sarcoma virus ras gene. Nature 297: 474-478, 1982.; Santos, E., Tronick, S. R., Aaronson, S. A., Pulciani, S., and Barbacid, M. T24 human bladder carcinoma oncogene is an activated form of the normal human homologue of BALB-and Harvey-MSV transforming genes. Nature 298: 343-347, 1982.) T24 cells were maintained as monolayer cultures in Dulbecco's Modified Eagle's Medium (DMEM) supplemented with 10% Nu-serum Type IV (Collaborative Biomedical Products, Bedford, Mass. and 40 μg/ml G418 (Geneticin®, GIBCO-BRL, Gaithersburg, Md.).\nas §2, §3\nThree days after tumor inoculation, the five day treatment with (R)-6-[amino(4-chlorophenyl)(1-methyl-1H-imidazol-5yl)methyl]-4-(3-chlorophenyl)-1-methyl-2(1H)-quinolinone (compound 1) was initiated. Compound 1 was administered once daily by oral gavage in a 20% beta-cyclodextrin vehicle as a volume of 0.10 ml of solution per 10 gm body weight. Control groups received the same dosage volume of the 20% beta-cyclodextrin vehicle.\nCompounds. Compound 1 was prepared for oral administration by dissolving the compound first as a 2× concentrated stock in 40% hydroxypropyl beta cyclodextrin (lot no. 051-071/1) in 0.1 N HCI. Compound 1 was dissolved by stirring vigorously approximately 30 minutes followed by sonication for 10 min. The compound 1 solutions were brought to a final concentration by diluting 1:1 with 0.1 N HCI. The final drug solutions were sterile filtered immediately and transferred to sterile tubes. Solutions were stored refrigerated and protected form light during the course of the study and sterility was maintained by opening solutions under sterile laminar flow conditions."}, "[4]": {"conditions": "50, 100 and 200 mg/kg, five-day schedule, day 17"}}, "data": [{"smiles": "Cn1cncc1[C@@](N)(c1ccc(Cl)cc1)c1ccc2c(c1)c(-c1cccc(Cl)c1)cc(=O)n2C", "note": "[compound 1, (R)-6-[amino(4-chlorophenyl)(1-methyl-1H-imidazol-5yl)methyl]-4-(3-chlorophenyl)-1-methyl-2(1H)-quinolinone]", "values": [{"measurement": "duration of response (tumor suppressive effect)", "setting": "[1]; 100 mg/kg", "result": "waned by day 14"}, {"measurement": "duration of response (tumor suppressive effect)", "setting": "[1]; 200 mg dose", "result": "sustained effects out to day 17"}, {"measurement": "day by which tumors left untreated returned to rapid control growth rates", "setting": "[1]; 200 mg/kg once daily p.o. for five days, no further treatment", "result": "≤ 24", "unit": "days"}, {"measurement": "duration of sustained inhibition of tumor growth", "setting": "[1]; single 200 mg/kg dose three days after tumor inoculation", "result": 15, "unit": "days"}, {"measurement": "duration of sustained inhibition of tumor growth", "setting": "[1]; single 400 mg/kg dose three days after tumor inoculation", "result": 15, "unit": "days"}, {"measurement": "tumor growth, continuous schedule", "setting": "[2]; 50 mg/kg twice daily (100 mg/kg total daily dose)", "result": "significant reductions of tumor growth"}, {"measurement": "tumor growth, continuous schedule", "setting": "[2]; 100 mg/kg twice daily (200 mg/kg daily dose)", "result": "significant reductions of tumor growth"}, {"measurement": "tumor growth after day 24 without further treatment", "setting": "[2]; 200 mg/kg for five days, no further treatment", "result": "returned to the growth rate observed for vehicle treated controls"}, {"measurement": "growth of CAPAN-2 tumors", "setting": "[2]; 200 mg/kg p.o. once daily for five days, started three days after inoculation", "result": "significantly reduced the growth of CAPAN-2 tumors out to day 24"}, {"measurement": "tumor growth after additional five-day treatment", "setting": "[2]; additional five-day treatment on days 21 to 25, significant on day 28", "result": "transient growth arrest"}, {"measurement": "duration of response (tumor suppressive effect)", "setting": "[3]; 50 mg/kg, five-day dosing schedule", "result": "waned by day 14"}, {"measurement": "tumor size on day 17", "setting": "[3]; 200 mg/kg once daily p.o. for five days (days 3-8 after tumor inoculation), day 17", "result": "small tumors"}, {"measurement": "reduction of final tumor weights", "setting": "[3]; 200 mg/kg, five-day schedule, day 17", "result": 90, "unit": "%"}, {"measurement": "reduction of tumor growth measured as final tumor area", "setting": "[3]; [4]", "result": "Significant, dose-related reductions"}, {"measurement": "reduction of tumor growth measured as final tumor weights", "setting": "[3]; [4]", "result": "Significant, dose-related reductions"}, {"measurement": "tumor growth after additional 5-day treatment", "setting": "[3]; additional 5-day treatment with 200 mg/kg starting on day 21", "result": "again arrested but not as dramatically as in the initial treatment"}]}]}
